Assays:
Format in all cases: biochemical
Settings in all cases: HeLa S3 lysate, sfGFP/mCherry ratio, 2 hrs at 30° C.
ALK = assay: In vitro transcription-translation (IVTT) reporter assay, ALK test sequence
Text: (§1) All reporter constructs have been cloned into the pT7CFE1-CHis plasmid (ThermoFisher #88860) using Gibson assembly procedures (NEB #E2611L). The parental pT7CFE1-CHis plasmid contains an EMCV IRES at the 5′UTR for translation initiation, a multiple-cloning site (MCS) for gene insertion, an optional C-terminal His-epitope tag, and polyA sequence in the 3′UTR to regulate mRNA stability. All reporters are designed to be inserted at the MCS to include a red fluorescent protein (mCherry), P2A self-cleaving peptide which releases the preceding mCherry protein product, and a fusion open reading frame containing a 3×FLAG epitope, a peptide sequence of interest (TEST), and green fluorescent protein (sfGFP).
(§2) Construct Plasmid Preparation: All plasmids are isolated from MACH1 cells (ThermoFisher) grown overnight in ampicillin-containing luria broth, and purified using ZymoPure Express Plasmid Midiprep Kit (Zymo Research). Constructs are sequenced verified and diluted to a working concentration of 110 ng/μL.
(§3) HeLa S3 Lysate Preparation: HeLa S3 cell pellets are acquired from Ipracell/Ipratech (Belgium) and shipped as 4 mL frozen cell pellets on dry ice for storage at −80° C. until use. The procedure for lysate preparation is as follows. Prepare 1× Lysis Buffer, cold and stored on ice:
(§4) Each preparation takes 8 cell pellets (4 ml packed volume each, approximately 1.0×10^9 cells per pellet). Thaw cell pellets from −80° C. on ice for 90 mins. Lay pellets horizontally on top of the ice and rotate every 30 mins to ensure even thawing. Once thawed, add 4 mL of cold lysis buffer to each pellet, and using a serological pipet, gently pipet up and down to break up clumps. Incubate resuspended cells in ice for an additional 30 mins (plunged into ice). During 30 min incubation, rinse and RNase-zap (Ambion) glass dounces (use loose pestle “A”), gently dry and place on ice until needed. Prepare RNase-free Eppendorf tubes for spinning and for batch storage. Add batch labels to 1.5-1.7 mL RNase-free microcentrifuge tubes (labeling scheme below). Each batch will have an extra 1.5-1.7 mL RNase-free microcentrifuge tube for 40 μL of lysate, label the top of this tube (labeling scheme below). After 30 min incubation, transfer all 8 mL of cell pellet to dounce. Cell lysis is complete after douncing 100 times. Aliquot cell lysis into 1.5-1.7 mL temporary-microcentrifuge tubes. Place tubes in centrifuge with “fins” out, and spin at 1,200 xg for 5 mins. After the first spin use a 1 mL pipet to resuspend each tube and repeat spin. This acts as an additional lysis step, is more vigorous and increases lysate yield. During second spin get liquid N2 and a fresh conical tube on ice.
(§5) After spin is complete, transfer supernatant (lysate) from microcentrifuge tubes into the 50 mL conical tube and keep on ice. Repeat steps 10-14 for all other cell pellets until completed. Once all cell lysate has been transferred to the 50 mL conical tube pipet to mix so the solution is homogenous. Transfer 1 mL of lysate into batch-labeled microcentrifuge tubes and flash freeze in liquid nitrogen. Be sure to pipet up and down to mix throughout transfer step. Place all tubes in the […] for long-term storage.
(§6) In vitro transcription-translation assay setup: Each assay includes a master mix containing lysate and shared components, a 96-well plate containing compound titrations for testing, a 96-well DNA plate with reporter constructs to be tested, 96-well skirted PCR plates, and 96-well flat-bottom, black, fluorescent assay plates. […]

KRAS G12D = assay: In vitro transcription-translation (IVTT) reporter assay, KRAS G12D test sequence
Text: as §1, §2, §3, §4, §5, §6

MYC = assay: In vitro transcription-translation (IVTT) reporter assay, MYC test sequence
Text: as §1, §2, §3, §4, §5, §6

Compound COc1ccc(C[C@H]2NC[C@H](O)[C@H]2OC(=O)C2CN(CC3COC3)C2)cc1 [V186772, (2R,3S,4S)-4-hydroxy-2-[(4-methoxyphenyl)methyl]pyrrolidin-3-yl 1-(oxetan-3-ylmethyl)azetidine-3-carboxylate] has an IC50 (ALK) of over 30 µM, an IC50 (KRAS G12D) of over 30 µM and an IC50 (MYC) of over 30 µM.

Compound COc1ccc(C[C@H]2NC[C@H](O)[C@H]2OC(=O)CC[C@@H]2NC(=O)C3(CNC3)NC2=O)cc1 [V187324, (2R,3S,4S)-4-hydroxy-2-[(4-methoxyphenyl)methyl]pyrrolidin-3-yl 3-[(7S)-6,9-dioxo-2,5,8-triazaspiro[3.5]nonan-7-yl]propanoate] has an IC50 (ALK) of over 30 µM, an IC50 (KRAS G12D) of over 30 µM and an IC50 (MYC) of 20 to 30 µM.

For COc1ccc(C[C@H]2NC[C@H](O)[C@H]2OC(=O)Cc2ccc3ccccc3c2)cc1 [V187123, (2R,3S,4S)-4-hydroxy-2-[(4-methoxyphenyl)methyl]pyrrolidin-3-yl 2-(naphthalen-2-yl)acetate; trifluoroacetic acid], the IC50 (ALK) was under 10 µM, the IC50 (KRAS G12D) was over 30 µM and the IC50 (MYC) was 10 to 20 µM.

In the case of COc1ccc(C[C@H]2NC[C@H](O)[C@H]2OC(=O)CNc2c(NCc3ccccc3)c(=O)c2=O)cc1 [V187517, (2R,3S,4S)-4-hydroxy-2-[(4-methoxyphenyl)methyl]pyrrolidin-3-yl 2-{[2-(benzylamino)-3,4-dioxocyclobut-1-en-1-yl]amino}acetate; trifluoroacetic acid], the IC50 (ALK) is reported as under 10 µM and the IC50 (KRAS G12D) is reported as 20 to 30 µM.

COc1ccc(C[C@H]2NC[C@H](O)[C@H]2OC(=O)C[C@H]2CCNC2)cc1 [V187689] was tested, and the IC50 (ALK) was under 10 µM, the IC50 (KRAS G12D) was under 10 µM and the IC50 (MYC) was under 10 µM.

Compound COc1ccc(C[C@H]2NC[C@H](O)[C@H]2OC(=O)C2CC(O)C2)cc1 (stereo partly shown) [V186765] has an IC50 (KRAS G12D) of 10 to 20 µM and an IC50 (MYC) of under 10 µM.

Compound COc1ccc(C[C@H]2NC[C@H](O)[C@H]2OC(=O)[C@H]2CN(Cc3ccccc3)CC23CNC3)cc1 [V186718, (2R,3S,4S)-4-hydroxy-2-[(4-methoxyphenyl)methyl]pyrrolidin-3-yl (8R)-6-benzyl-2,6-diazaspiro[3.4]octane-8-carboxylate] has an IC50 (ALK) of over 30 µM and an IC50 (KRAS G12D) of over 30 µM.

COc1ccc(C[C@H]2NC[C@H](O)[C@H]2OC(=O)CN)cc1 [V186760, (2R,3S,4S)-4-hydroxy-2-[(4-methoxyphenyl)methyl]pyrrolidin-3-yl 2-aminoacetate] showed an IC50 (ALK) of under 10 µM, an IC50 (KRAS G12D) of 20 to 30 µM and an IC50 (MYC) of under 10 µM.

COc1ccc(C[C@H]2NC[C@H](O)C2OC(=O)COCc2ccc3nonc3c2)cc1 (stereo partly shown) [V187179] showed an IC50 (ALK) of under 10 µM, an IC50 (KRAS G12D) of under 10 µM and an IC50 (MYC) of under 10 µM.

COc1ccc(C[C@H]2NC[C@H](O)[C@H]2OC(=O)c2ccc(S(=O)(=O)N(C)C)cc2)cc1 [V000198, (2R,3S,4S)-4-hydroxy-2-[(4-methoxyphenyl)methyl]pyrrolidin-3-yl 4-(dimethylsulfamoyl)benzoate] showed an IC50 (ALK) of over 30 µM, an IC50 (KRAS G12D) of over 30 µM and an IC50 (MYC) of over 30 µM.

For COc1ccc(C[C@H]2NC[C@H](O)[C@H]2OC(=O)CCN2C(=O)CNC2=O)cc1 [V186870, (2R,3S,4S)-4-hydroxy-2-[(4-methoxyphenyl)methyl]pyrrolidin-3-yl 3-(2,5-dioxoimidazolidin-1-yl)propanoate], the IC50 (ALK) was under 10 µM, the IC50 (KRAS G12D) was 10 to 20 µM and the IC50 (MYC) was under 10 µM.

COc1ccc(C[C@H]2NC[C@H](O)[C@H]2OC(=O)C2CCOCC2)cc1 [V186763, (2R,3S,4S)-4-hydroxy-2-[(4-methoxyphenyl)methyl]pyrrolidin-3-yl oxane-4-carboxylate] gave an IC50 (ALK) of over 30 µM and an IC50 (KRAS G12D) of over 30 µM.

Compound COc1ccc(C[C@H]2NC[C@H](O)[C@H]2OC(=O)C2CSSC2)cc1 [V186868, (2R,3S,4S)-4-hydroxy-2-[(4-methoxyphenyl)methyl]pyrrolidin-3-yl 1,2-dithiolane-4-carboxylate; trifluoroacetic acid] has an IC50 (ALK) of over 30 µM and an IC50 (KRAS G12D) of over 30 µM.

With COc1ccc(C[C@H]2NC[C@H](O)[C@H]2OC(=O)[C@H]2CC[C@@H](O)CC2)cc1 [V186822, (2R,3S,4S)-4-hydroxy-2-[(4-methoxyphenyl)methyl]pyrrolidin-3-yl (1 s,4 s)-4-hydroxy cyclohexane-1-carboxylate] the IC50 (KRAS G12D) was over 30 µM.

Work on COc1ccc(C[C@H]2NC[C@H](O)[C@H]2OC(=O)C2CCCS2)cc1 (stereo partly drawn) [V186774, (2R,3S,4S)-4-hydroxy-2-[(4-methoxyphenyl)methyl]pyrrolidin-3-yl thiolane-2-carboxylate] yielded an IC50 (KRAS G12D) of over 30 µM and an IC50 (MYC) of 20 to 30 µM.

Compound COc1ccc(C[C@H]2NC[C@H](O)[C@H]2OC(=O)C2CC3(CNC3)C2)cc1 [V0108, (2R,3S,4S)-4-hydroxy-2-[(4-methoxyphenyl)methyl]pyrrolidin-3-yl 2-azaspiro[3.3]heptane-6-carboxylate] has an IC50 (KRAS G12D) of over 30 µM and an IC50 (MYC) of over 30 µM.

CC(=O)O[C@@H]1[C@@H](O)CN[C@@H]1Cc1ccc(-c2ccccc2)cc1 [V186811] showed an IC50 (KRAS G12D) of under 10 µM and an IC50 (MYC) of under 10 µM.

In the case of COc1ccc(C[C@H]2NC[C@H](O)[C@H]2OC(=O)Cc2ccc(F)cc2)cc1 [V187054, (2R,3S,4S)-4-hydroxy-2-[(4-methoxyphenyl)methyl]pyrrolidin-3-yl 2-(4-fluorophenyl) acetate], the IC50 (KRAS G12D) is reported as under 10 µM and the IC50 (MYC) is reported as under 10 µM.

COc1ccc(C[C@H]2NC[C@H](O)[C@H]2OC(=O)COC2CC2)cc1 [V187169, (2R,3S,4S)-4-hydroxy-2-[(4-methoxyphenyl)methyl]pyrrolidin-3-yl 2-cyclopropoxyacetate; trifluoroacetic acid] gave an IC50 (KRAS G12D) of under 10 µM and an IC50 (MYC) of under 10 µM.

COc1ccc(C[C@H]2NC[C@H](O)[C@H]2OC(=O)Cc2ccccc2)cc1 [V0110, (2R,3S,4S)-4-hydroxy-2-[(4-methoxyphenyl)methyl]pyrrolidin-3-yl 2-phenylacetate] showed an IC50 (KRAS G12D) of under 10 µM and an IC50 (MYC) of under 10 µM.

COc1ccc(C[C@H]2NC[C@H](O)[C@H]2OC(=O)COC2CC(F)(F)C2)cc1 [V187171, (2R,3S,4S)-4-hydroxy-2-[(4-methoxyphenyl)methyl]pyrrolidin-3-yl 2-(3,3-difluorocyclobutoxy)acetate; trifluoroacetic acid] showed an IC50 (ALK) of under 10 µM and an IC50 (KRAS G12D) of under 10 µM.

Compound COc1ccc(C[C@H]2NC[C@H](O)[C@H]2OC(=O)Cc2ccc(F)c(Cl)c2)cc1 [V187164, (2R,3S,4S)-4-hydroxy-2-[(4-methoxyphenyl)methyl]pyrrolidin-3-yl 2-(3-chloro-4-fluorophenyl)acetate; trifluoroacetic acid] has an IC50 (KRAS G12D) of under 10 µM and an IC50 (MYC) of under 10 µM.

In the case of COc1ccc(C[C@H]2NC[C@H](O)[C@H]2OC(=O)CCC2C(=O)N(C)CC(=O)N2C)cc1 (stereo partly drawn) [V186871, (2R,3S,4S)-4-hydroxy-2-[(4-methoxyphenyl)methyl]pyrrolidin-3-yl 3-(1,4-dimethyl-3,6-dioxopiperazin-2-yl)propanoate; trifluoroacetic acid], the IC50 (KRAS G12D) is reported as over 30 µM and the IC50 (MYC) is reported as 20 to 30 µM.

With COc1ccc(C[C@H]2NC[C@H](O)[C@H]2OC(=O)CN2CC3(C2)CC(F)(F)C3)cc1 [V187067, (2R,3S,4S)-4-hydroxy-2-[(4-methoxyphenyl)methyl]pyrrolidin-3-yl 2-{6,6-difluoro-2-azaspiro[3.3]heptan-2-yl}acetate] the IC50 (ALK) was under 10 µM and the IC50 (KRAS G12D) was 10 to 20 µM.

CCCC(CCC)C(=O)O[C@@H]1[C@@H](O)CN[C@@H]1Cc1ccc(OC)cc1 [V186780] gave an IC50 (KRAS G12D) of over 30 µM.

COc1ccc(C[C@H]2NC[C@H](O)[C@H]2OC(=O)Cc2ccc(N3CCOCC3)cc2)cc1 [V187134, (2R,3S,4S)-4-hydroxy-2-[(4-methoxyphenyl)methyl]pyrrolidin-3-yl 2-[4-(morpholin-4-yl)phenyl]acetate] showed an IC50 (ALK) of under 10 µM and an IC50 (MYC) of under 10 µM.

Reference: US20250091989A1, “SMALL MOLECULE PROTEIN SYNTHESIS MODULATORS” (Interdict Bio, Inc., priority 2023, published 2025)
